Source: US10806726B2, “Methods of using indazole-3-carb oxamides and their use as Wnt/B-catenin signaling pathway inhibitors” (Samumed, LLC, priority 2016, dated 2020)

Key:
[1] = test system: primary human mesenchymal stem cells (hMSCs); test: Tenocyte Differentiation Assay, hMSCs, 7 days (Example 11); type: cell-based; settings: 168 h, 750-5.8 nM, read-out: EC50, induction of SCXA, TenacinC and Tenomodulin expression
Protocol: Primary human mesenchymal stem cells (hMSCs; Lonza Inc) were cultured in MSCGM™ Mesenchymal Stem Cell Growth Medium, with 10% FBS (Lonza) 10% fetal bovine serum (FBS) (Hyclone) at 37° C., 5% CO2. hMSCs were used between passage 2 and 6 and were never allowed to reach confluence to maintain a naive state.
Tenocyte Differentiation Assay. For tenocyte differentiation, hMSCs were plated in 384-well plates at 1×10^4 cells/well in Dulbecco's modified Eagle's medium (DMEM, ThermoFisher) with 1% fetal bovine serum (FBS) (Hyclone). Cells were then treated with DMSO (vehicle control) or compound 175 at 750 nM top concentration and 2-fold dilution up to 8 concentrations ([…], 166.6, 83.3, 41.7, 21.7, 10.8 and 5.8 nM) and incubated for 7 days at 37° C. A combination of BMP and FGF ([…], Peprotech, Inc.) was used as a positive control. […] Plates were imaged using a CX5 high-content imager (ThermoFisher) and the % of cells stained positive were determined using a cell scoring algorithm (ThermoFisher). Data was plotted and EC50 was calculated using Prism 5 (GraphPad Software Inc, La Jolla, Calif., USA). […]

[2] = test system: Wnt responsive promoter linked to luciferase gene in SW480 cells; test: Wnt Reporter Assay, SW480, 48 hours (Example 10); type: cell-based; settings: Homo sapiens, 10-0.0003 μM, read-out: EC50, inhibition of Wnt pathway activity
Protocol: SW480 cells (ATCC) were cultured in Dulbecco's modified Eagle's medium (DMEM, ThermoFisher) with 1% Glutamax (Life Technologies), 1% Penicillin-Streptomycin (Life Technologies), 150 ug/ml Hygromycin (Life Technologies) with 10% fetal bovine serum (FBS) (Hyclone) at 37° C., 5% CO2.
Wnt Reporter Assay. Human colorectal cancer cell line SW480, stably expressing the Wnt responsive promoter linked to luciferase gene, was plated overnight at 4×10e^4 cells/well in DMEM, high glucose, no glutamine, no phenol red (Life Technologies), 1% Glutamax (Life Technologies), 1% Sodium Pyruvate (Life Technologies), 1% Penicillin-Streptomycin (Life Technologies) with 1% Fetal Bovine Serum (Hyclone). Cells were then treated with DMSO (vehicle control) or COMPOUND 175 at 10 μM top concentration and half a log dilution up to 10 concentrations (10, 3, 1, 0.3, 0.1, 0.03, 0.01, 0.003, 0.001 and 0.0003 μM). Cells were incubated for 48 hours at 37° C. 15 μl of Bright-Glo (Bright-Glo™ Luciferase Assay System, Promega) was added to the cells and luminescence was measured using the Cytation 3 plate reader (Biotek). Data was normalized using the DMSO control and inhibition profile and EC50 was calculated using Prism 4 (GraphPad Software Inc, La Jolla, Calif., USA). Prism 4.0 was used to calculate the EC50 of the Wnt reporter inhibition assay.

EC50 [1]: 139 to 189 nM
EC50 [2]: 153 nM
Compound: COc1ccc(NC(=O)c2n[nH]c3ccc(-c4cncc(CN5CCCCC5)c4)cc23)cn1 [compound 175, N-(6-Methoxypyridin-3-yl)-5-(5-(piperidin-1-ylmethyl)pyridin-3-yl)-1H-indazole-3-carboxamide]
